The text below walks through data of paper PMC12865480 (Pharmaceuticals, 2025).

For series [1], the system named is capsaicin mouse model of neuropathic pain. As to conditions: dose of 0.25 mg/kg body weight; cited from earlier work.
In series [2] the target is PCP binding site of the NMDA receptor. Put plainly: PCP binding site assay, radioligand [3H](+)-MK-801, pig brain preparations. The note with it: n = 3, values without SEM mean of two experiments.
The next series addresses µ-opioid receptor (Cavia porcellus, UniProt A0ACM8Q262). Kind of series: µ-opioid receptor binding study. The note with it: read-out: inhibition of the radioligand binding, µ receptor.
In another series the target is κ-opioid receptor (Cavia porcellus, UniProt P41144). Kind of series: κ-opioid receptor binding study. As to conditions: read-out: inhibition of the radioligand binding, κ receptor.
Chain of κ-opioid receptor (P41144 whole entry): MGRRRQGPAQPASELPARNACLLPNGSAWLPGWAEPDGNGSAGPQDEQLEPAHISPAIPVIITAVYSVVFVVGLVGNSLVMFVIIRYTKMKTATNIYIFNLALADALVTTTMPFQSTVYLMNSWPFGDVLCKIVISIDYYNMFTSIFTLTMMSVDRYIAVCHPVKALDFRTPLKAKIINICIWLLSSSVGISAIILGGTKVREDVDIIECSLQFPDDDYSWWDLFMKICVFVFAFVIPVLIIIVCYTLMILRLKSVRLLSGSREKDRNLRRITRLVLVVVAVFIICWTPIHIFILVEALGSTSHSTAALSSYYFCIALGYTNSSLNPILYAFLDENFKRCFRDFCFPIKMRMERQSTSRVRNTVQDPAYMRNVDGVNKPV
Series [3] addresses T1, σ1 receptor (Cavia porcellus, UniProt Q60492). Put plainly: biochemical.
In a further series the target is δ-opioid receptor (Rattus norvegicus, UniProt P33533). Put plainly: δ-opioid receptor binding study. The note with it: read-out: inhibition of the radioligand binding, δ receptor.
Chain of δ-opioid receptor (P33533 whole entry): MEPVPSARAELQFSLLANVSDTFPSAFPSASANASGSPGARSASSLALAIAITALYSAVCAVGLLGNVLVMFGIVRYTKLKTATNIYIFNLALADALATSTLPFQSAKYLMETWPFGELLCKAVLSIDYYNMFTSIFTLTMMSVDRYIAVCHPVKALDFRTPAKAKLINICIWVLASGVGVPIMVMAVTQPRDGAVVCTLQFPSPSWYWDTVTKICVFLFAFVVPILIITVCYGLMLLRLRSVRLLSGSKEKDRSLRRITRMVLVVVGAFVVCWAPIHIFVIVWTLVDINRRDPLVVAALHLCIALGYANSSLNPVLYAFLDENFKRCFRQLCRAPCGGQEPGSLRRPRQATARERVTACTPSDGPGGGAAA
Series [4] concerns the target T2, ifenprodil binding site of NMDA receptors with GluN2B subunit (Homo sapiens, UniProt Q05586+Q13224).
T2 construct: expressed in transfected cells; host or cells: mouse L(tk-) cells, stably transfected, expression induced with dexamethasone; membrane homogenate
Put plainly: biochemical. As to conditions: read-out: Ki ± SEM GluN2B.

The target in series [5] is T1, σ1 receptor.
For series [6] the following is noted: after 90 min incubation with mouse liver microsomes and NADPH. For orientation: Microsomes from liver hold many membrane-bound enzymes, among them those of drug oxidation.
A short description of a further series: physchem. The note with it: pH 7.4.
The target in another series is T3, σ2 receptor (Rattus norvegicus, UniProt Q5U3Y7).
T3 sequence (Q5U3Y7 1-176): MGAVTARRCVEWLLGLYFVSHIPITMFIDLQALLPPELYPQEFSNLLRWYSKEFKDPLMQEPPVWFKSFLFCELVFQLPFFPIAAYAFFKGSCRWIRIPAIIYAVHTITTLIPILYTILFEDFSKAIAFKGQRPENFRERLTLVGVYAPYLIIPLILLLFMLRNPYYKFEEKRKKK
Put plainly: biochemical. Format: binding. As to conditions: read-out: Ki ± SEM σ2.

T1 sequence (Q60492 whole entry): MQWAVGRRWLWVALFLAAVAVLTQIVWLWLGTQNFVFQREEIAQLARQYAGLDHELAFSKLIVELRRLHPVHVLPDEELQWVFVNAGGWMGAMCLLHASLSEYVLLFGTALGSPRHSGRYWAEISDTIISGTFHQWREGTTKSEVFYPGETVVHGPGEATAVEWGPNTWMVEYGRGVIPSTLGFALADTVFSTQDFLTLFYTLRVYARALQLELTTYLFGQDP
T2 sequence (Q13224 27-1484, other chains not shown): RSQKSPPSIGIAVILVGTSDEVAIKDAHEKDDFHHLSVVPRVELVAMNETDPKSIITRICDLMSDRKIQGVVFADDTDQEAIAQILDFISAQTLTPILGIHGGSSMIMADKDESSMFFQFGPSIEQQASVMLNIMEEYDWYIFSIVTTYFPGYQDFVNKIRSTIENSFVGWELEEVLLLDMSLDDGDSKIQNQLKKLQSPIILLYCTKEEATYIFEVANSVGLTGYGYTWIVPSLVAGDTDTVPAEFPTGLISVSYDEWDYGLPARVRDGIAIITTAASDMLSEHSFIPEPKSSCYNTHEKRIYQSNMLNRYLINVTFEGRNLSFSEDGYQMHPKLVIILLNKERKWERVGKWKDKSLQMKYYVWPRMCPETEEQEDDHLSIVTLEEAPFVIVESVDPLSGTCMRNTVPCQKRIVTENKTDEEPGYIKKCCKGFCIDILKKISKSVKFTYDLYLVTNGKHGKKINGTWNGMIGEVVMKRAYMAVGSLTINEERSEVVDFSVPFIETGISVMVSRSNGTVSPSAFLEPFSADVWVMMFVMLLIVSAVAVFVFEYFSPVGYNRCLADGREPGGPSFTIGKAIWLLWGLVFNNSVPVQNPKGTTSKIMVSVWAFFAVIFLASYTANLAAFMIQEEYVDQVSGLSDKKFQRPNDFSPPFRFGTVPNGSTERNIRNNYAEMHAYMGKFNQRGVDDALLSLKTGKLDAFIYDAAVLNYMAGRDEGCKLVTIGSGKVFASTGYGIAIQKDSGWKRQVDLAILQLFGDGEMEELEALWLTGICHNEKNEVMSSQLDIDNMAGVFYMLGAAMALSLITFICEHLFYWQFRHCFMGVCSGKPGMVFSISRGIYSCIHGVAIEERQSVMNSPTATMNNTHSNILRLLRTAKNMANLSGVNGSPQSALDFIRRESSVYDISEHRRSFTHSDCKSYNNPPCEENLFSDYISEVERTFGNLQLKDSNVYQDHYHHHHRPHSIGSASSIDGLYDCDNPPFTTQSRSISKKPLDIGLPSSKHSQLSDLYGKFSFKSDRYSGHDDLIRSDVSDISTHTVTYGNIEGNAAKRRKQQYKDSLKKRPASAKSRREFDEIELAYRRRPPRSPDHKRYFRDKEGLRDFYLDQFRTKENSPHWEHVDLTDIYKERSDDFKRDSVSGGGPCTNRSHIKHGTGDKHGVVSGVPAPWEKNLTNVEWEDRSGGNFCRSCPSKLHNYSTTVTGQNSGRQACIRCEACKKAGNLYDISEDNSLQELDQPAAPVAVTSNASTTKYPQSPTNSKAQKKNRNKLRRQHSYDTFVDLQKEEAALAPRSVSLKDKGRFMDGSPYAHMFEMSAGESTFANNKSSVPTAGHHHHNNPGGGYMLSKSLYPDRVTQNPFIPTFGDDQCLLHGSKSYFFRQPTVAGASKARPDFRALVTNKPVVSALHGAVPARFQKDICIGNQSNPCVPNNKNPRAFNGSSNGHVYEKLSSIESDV
Chain of µ-opioid receptor (A0ACM8Q262 1-400): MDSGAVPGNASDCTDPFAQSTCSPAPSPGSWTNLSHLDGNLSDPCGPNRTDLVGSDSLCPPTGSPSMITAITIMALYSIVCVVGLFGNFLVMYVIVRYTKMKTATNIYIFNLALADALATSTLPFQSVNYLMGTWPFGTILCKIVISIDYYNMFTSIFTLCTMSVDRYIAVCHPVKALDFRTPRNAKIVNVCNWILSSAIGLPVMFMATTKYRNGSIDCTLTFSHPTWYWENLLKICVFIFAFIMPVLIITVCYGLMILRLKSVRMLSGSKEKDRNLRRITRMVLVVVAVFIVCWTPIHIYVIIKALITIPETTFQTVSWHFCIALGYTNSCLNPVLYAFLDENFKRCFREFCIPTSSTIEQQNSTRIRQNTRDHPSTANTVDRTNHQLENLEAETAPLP

For the molecule `c1ccc(CNCCC2CCOC(c3ccccc3)O2)cc1` (centres unmarked) [compound 1], the analgesic activity in [1] is recorded as 70%.

Regarding `CN(CCCC[C@H]1CCO[C@@H](c2ccccc2)O1)Cc1ccccc1` (relative stereo) [18a, N-Benzyl-N-methyl-4-(cis-2-phenyl-1,3-dioxan-4-yl)butan-1-amine], the Ki (commonly the dissociation constant of the complex between target and ligand, obtained from inhibition or displacement) was over 1000 nM in [2]; 6.3 ± 2.4 nM at σ1 receptor [3] (Ki ± SEM σ1); 6.31 nM at σ1 receptor [3] (pKi(σ1)); 261 ± 54 nM in series [4]; 31 ± 3.1 nM on σ2 receptor. Besides, the inhibition at 1 µM on µ-opioid receptor, at κ-opioid receptor and at δ-opioid receptor was 0% each time. Moreover, on σ1 receptor [5], the “LLE (ligand-lipophilicity efficiency)” value is reported as 5.71. Also, the “selectivity for the σ1 receptor against the ifenprodil binding site” value at σ1 receptor [5] is listed as over 40 fold. Moreover, the “σ1:σ2 receptor selectivity” value at σ1 receptor [5] (σ1 over σ2) turned out to be 5 fold. The “Metabolic Stability (5): amount of the remaining unmetabolized parent compound” value in [6] was determined as 48 ± 4%. Further, the log distribution coefficient (logD) (as a rule, the decadic logarithm of the distribution of all forms, ionised or not, between an organic phase and buffer at a given pH) in “physchem” is 2.49 ± 0.05.
